From US20200129511A1, “COMPOUNDS AND METHODS FOR TREATMENT OF NAFLD AND NASH” (Arena Pharmaceuticals, Inc., priority 2017, published 2020)
“Also recorded” adds a separate entry of the source.

Tests used:
[1] = test system: Caco-2 monolayers; experiment: permeability across Caco-2 monolayers; type: in vitro ADME
[2] = test system: male C57bl/6j mice; experiment: oral glucose tolerance test (oGTT) in normal lean mice; type: in vivo, mouse; conditions: 1 mg/kg and 10 mg/kg p.o.
Experimental: (§1) Animals were grouped in regular cages (rats 2/cage, mice 4/cage) with bedding under normal light conditions (lights on 6:30 am-6:30 pm). They were given ad libitum access to food and water. Animals were allowed to acclimate to the facility for several days before handling.
Mouse: Following 2 handling sessions, animals were fasted for 3-16 h.
The oral glucose tolerance test (oGTT) was executed as follows: Compound was administered 0-30 min prior to first blood sample. At time 0, a tail nick and glucose test was performed with a hand-held glucometer, then a bolus of glucose ([…], p.o.) was administered. Glucose was again tested at 20, 40, 60, and 120 minutes post glucose administration. During the entire oGTT, a total volume of approximately 10 drops of blood was collected.

[3] = oral pharmacokinetics in rat; type: in vivo; conditions: Male Sprague-Dawley rat, 10 mg/kg, 40% HPβCD
[4] = oral pharmacokinetics in monkey; type: in vivo; conditions: Male cynomolgus monkey, 10 mg/kg, 100% PEG400
[5] = oral pharmacokinetics in mouse; type: in vivo, Male C57B1 mouse
[6] = test system: T2DM patients; conditions: cited from earlier work
[7] = test system: dog; conditions: 7-day
[8] = oral pharmacokinetics in dog; type: in vivo; conditions: Male beagle dog, 7.85 mg/kg, 100% PEG400
[9] = stability in human liver microsomes; type: in vitro ADME
[10] = stability in rat liver microsomes; type: in vitro ADME
[11] = test system: Male C57BL/6 mice fed high fat diet; experiment: High Fat Diet (HFD) mouse model of non-alcoholic fatty liver disease; type: in vivo; conditions: five times per week for six weeks
From the text: Male C57BL/6 mice (8 weeks) were fed either normal or high fat diet (HFD) (60% TD06414, Envigo) and given water ad libitum. […] At 20 weeks, mice were sacrificed and serum plasma was collected for measurement of various biochemical parameters, including serum transaminases.

[12] = molecular target: hERG channel (Homo sapiens, UniProt Q12809); experiment: hERG patch clamp study; type: cell-based
Chain of hERG channel (Q12809 whole entry): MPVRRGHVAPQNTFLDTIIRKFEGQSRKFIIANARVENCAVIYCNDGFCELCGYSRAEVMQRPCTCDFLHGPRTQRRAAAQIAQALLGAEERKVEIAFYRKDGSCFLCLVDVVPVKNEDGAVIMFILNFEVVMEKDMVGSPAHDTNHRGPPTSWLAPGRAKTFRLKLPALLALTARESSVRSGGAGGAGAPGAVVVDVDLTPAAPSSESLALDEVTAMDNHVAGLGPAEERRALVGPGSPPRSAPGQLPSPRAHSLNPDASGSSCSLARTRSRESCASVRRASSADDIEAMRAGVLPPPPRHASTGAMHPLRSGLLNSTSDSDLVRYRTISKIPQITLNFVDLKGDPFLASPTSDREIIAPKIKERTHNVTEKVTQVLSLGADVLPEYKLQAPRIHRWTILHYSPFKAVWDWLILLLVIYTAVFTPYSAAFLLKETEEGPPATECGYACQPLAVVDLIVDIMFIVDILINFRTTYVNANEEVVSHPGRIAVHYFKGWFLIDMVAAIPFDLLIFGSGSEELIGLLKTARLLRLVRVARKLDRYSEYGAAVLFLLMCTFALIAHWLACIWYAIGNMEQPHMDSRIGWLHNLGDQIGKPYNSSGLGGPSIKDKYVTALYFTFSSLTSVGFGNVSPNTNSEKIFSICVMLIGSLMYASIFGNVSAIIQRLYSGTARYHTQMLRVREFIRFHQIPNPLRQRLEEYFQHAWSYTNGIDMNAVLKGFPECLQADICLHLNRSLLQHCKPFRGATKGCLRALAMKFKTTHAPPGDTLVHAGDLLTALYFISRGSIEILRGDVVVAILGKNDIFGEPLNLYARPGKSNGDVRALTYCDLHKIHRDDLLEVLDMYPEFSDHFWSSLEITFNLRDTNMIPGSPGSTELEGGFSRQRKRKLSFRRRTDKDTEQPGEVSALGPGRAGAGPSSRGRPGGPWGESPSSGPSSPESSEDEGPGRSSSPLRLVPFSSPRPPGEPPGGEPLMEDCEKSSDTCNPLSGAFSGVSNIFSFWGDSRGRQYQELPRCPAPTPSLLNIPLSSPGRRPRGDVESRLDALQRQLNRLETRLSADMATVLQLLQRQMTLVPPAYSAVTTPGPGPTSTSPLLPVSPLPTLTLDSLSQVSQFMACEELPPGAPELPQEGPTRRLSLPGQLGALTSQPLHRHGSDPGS

[13] = test system: rat; conditions: 14-day
[14] = test system: healthy male volunteers; conditions: cited from earlier work
[15] = test system: ZDF rat; experiment: oGTT in ZDF rat; type: in vivo; conditions: 3 mg/kg
[16] = test system: Sprague-Dawley rat; experiment: oral glucose tolerance test (oGTT) in Sprague-Dawley rat; type: in vivo
Experimental: as §1
Rat: Animals are fasted 3-16 h.
The oral glucose tolerance test (OGTT) was executed as follows: At time minus 30 min, blood was collected via a tail nick and a glucose test performed with a hand-held glucometer, and compound was then administered. At time 0, blood was again collected for glucose reading and then a bolus of glucose (3 g/kg p.o., 6 mL/kg) administered. Blood glucose levels were further tested at 30, 60, and 120 min post glucose administration. During the entire oGTT, a total volume of approximately 8 drops of blood was collected. Rats were used twice with a one week lapse between experiments.

[17] = test system: ob/ob Mice; experiment: oGTT in ob/ob mice; type: in vivo, mouse; conditions: 3 mg/kg
[18] = test system: Cynomolgus monkey; experiment: oGTT in normal cynomolgus monkey; type: in vivo; conditions: 3 mg/kg
[19] = test system: anesthetized Guinea Pig; experiment: cardiovascular effects in the anesthetized Guinea Pig; type: in vivo; conditions: cumulative doses up to 5 mg/kg i.v., compared to vehicle controls
[20] = test system: mice fed a high-fat diet; conditions: cited from earlier work
[21] = Male C57B1 mouse, 10 mg/kg, 40% HPβCD
[22] = 100 or 500 mg single-dose or 500 mg once daily for 14 days
[23] = multiple dosing, compared to baseline
[24] = healthy male volunteers, 2.5-800 mg
[25] = oral single-dose, compared with placebo
[26] = Sprague-Dawley rat, 3-30 mg/kg PO
[27] = oral administration, mice fed a high-fat diet

## COc1c(Nc2ccc(S(C)(=O)=O)nc2C)ncnc1OC1CCN(C(=O)OC(C)C)CC1 [Compound 1, 4-[6-(6-Methanesulfonyl-2-methyl-pyridin-3-ylamino)-5-methoxy-pyrimidin-4-yloxy]-piperidine-1-carboxylic acid isopropyl ester]
[1]; A to B
  permeability across Caco-2 monolayers, A to B: 26 ×10⁻⁶ cm/s
[1]; B to A
  permeability across Caco-2 monolayers, B to A: 15 ×10⁻⁶ cm/s
[2]
  AUCglu during oGTT: significant reduction; also recorded: significant main effect
[3]
  % F: 72%
  AUCinf: 12471 ng·h/mL
  Cmax: 1390 ng/mL
  tmax: 1 h
[4]
  % F: 68.8%
  AUCinf: 64180 ng·h/mL
  Cmax: 4803 ng/mL
  tmax: 6 h
[5]; [21]
  AUCinf: 319953 ng·h/mL
  Cmax: 25833 ng/mL
  tmax: 2 h
[5]; mouse
  exposure after oral dosing: high
[6]; [22]
  hypoglycemia: not associated with hypoglycemia
  tolerability: well tolerated
[6]
  plasma systemic exposure versus dose: increased with increased dose
[6]; [23]
  post-meal gastric insulinotropic peptide concentration: increased
  post-meal total glucagon-like peptide 1 concentration: increased
[6]; multiple-dose administration
  time to attain steady-state: approximately 8 days
[6]; multiple-dose versus single-dose
  plasma systemic exposure after multiple-dose administration: approximately two-fold greater
[6]; single-dose, compared with placebo
  glucose excursion during an oral glucose tolerance test: decreased
[7]
  preliminary safety findings: no obvious liabilities
[8]
  % F: 22.1%
  AUCinf: 43743 ng·h/mL
  Cmax: 1983 ng/mL
  tmax: 8 h
[9]
  t1/2 in liver microsomes: > 1 h
[10]
  t1/2 in liver microsomes: > 1 h
[11]; HFD mice, 3, 10 and 30 mg/kg/day
  increases in serum ALT caused by high fat diet: blocked
[12]
  IC50: 13 ± 0.2 µM
[13]
  preliminary safety findings: no obvious liabilities
[14]; [24]
  hypoglycemia: not associated with hypoglycemia
  systemic exposure in plasma versus dose: increased in proportion to the dose
  tolerability: well tolerated
[14]; healthy male volunteers, coadministration of food
  influence of food on systemic exposure in plasma: not influenced by coadministration of food
[14]; healthy male volunteers, oral suspension formulation
  terminal elimination half-life: ~13 h
[14]; [25]
  glucose excursion: did not significantly decrease
  insulin secretion: did not significantly decrease glucose excursion or increase insulin secretion
  postmeal plasma glucagon-like peptide 1 (GLP-1) concentration: increased
  postmeal plasma glucose-dependent insulinotropic peptide (GIP) concentration: increased
  postmeal plasma peptide YY (PYY) concentration: increased
[15]
  Compd exposure upon oGTT: 1592 ± 128 ng/mL
[15]; oGTT
  Blood glucose AUC (% of vehicle group): 72.8 ± 6.3 % of vehicle group
[16]; SD rats, 3 mg/kg
  Compd exposure upon oGTT: 482 ± 116 ng/mL
[16]; SD rats, 3 mg/kg, oGTT
  Blood glucose AUC (% of vehicle group): 85.1 ± 1.9 % of vehicle group
[16]; [26]
  AUCglu during oGTT: markedly reduced; also recorded: significant main effect
  glucose handling: significantly improved
[17]
  Blood glucose AUC (% of vehicle group): 78.4 ± 5.1 % of vehicle group
[18]
  Compd exposure upon oGTT: 112 ± 16.9 ng/mL
[18]; oGTT
  Blood glucose AUC (% of vehicle group): 82.8 ± 1.7 % of vehicle group
[19]
  effects on mean arterial blood pressure (MAP), heart rate (HR) or electrocardiogram (ECG): did not produce any dose-related, statistically significant effects

## CCc1cnc(N2CCC(c3nc(COc4ccc(-n5cnnn5)cc4)cs3)CC2)nc1 [MBX-2982]
[20]; GPR119 KO mice
  hepatic antilipogenesis effects in GPR119 KO mice: abolished
[20]; [27]
  expression levels of SREBP-1 and lipogenesis-related genes: potently inhibited
  hepatic lipid accumulation: potently inhibited
[11]; HFD mice, 10 mg/kg/day
  increases in serum ALT caused by high fat diet: blocked by treatment with Compound 1, but not MBX-2982
